Data from BigSolDB 2.1.

Work on `O=C1CCc2cc(OCCCCc3nnnn3C3CCCCC3)ccc2N1` yielded a solubility (mole fraction) (in 1,4-dioxane, 288.15 K) of 0.00525, a solubility (mole fraction) (in 1,4-dioxane, 293.15 K) of 0.0061 and a solubility (mole fraction) (in 1,4-dioxane, 298.15 K) of 0.00708. It also gave a solubility (mole fraction) (in 1,4-dioxane, 303.15 K) of 0.00819, a solubility (mole fraction) (in 1,4-dioxane, 308.15 K) of 0.0095 and a solubility (mole fraction) (in 1,4-dioxane, 313.15 K) of 0.0112. It also gave a solubility (mole fraction) (in 2-butanone, 273.15 K) of 0.00289, a solubility (mole fraction) (in 2-butanone, 278.15 K) of 0.00345 and a solubility (mole fraction) (in 2-butanone, 283.15 K) of 0.00399. For the same molecule, the solubility (mole fraction) (in 2-butanone, 288.15 K) was 0.00464, the solubility (mole fraction) (in 2-butanone, 293.15 K) was 0.00529 and the solubility (mole fraction) (in 2-butanone, 298.15 K) was 0.006. It also gave a solubility (mole fraction) (in 2-butanone, 303.15 K) of 0.00677, a solubility (mole fraction) (in 2-butanone, 308.15 K) of 0.00774 and a solubility (mole fraction) (in 2-butanone, 313.15 K) of 0.00881. It also gave a solubility (mole fraction) (in acetone, 273.15 K) of 0.00168, a solubility (mole fraction) (in acetone, 278.15 K) of 0.00206 and a solubility (mole fraction) (in acetone, 283.15 K) of 0.00244. It also gave a solubility (mole fraction) (in acetone, 288.15 K) of 0.00287, a solubility (mole fraction) (in acetone, 293.15 K) of 0.00332 and a solubility (mole fraction) (in acetone, 298.15 K) of 0.00381. For the same molecule, the solubility (mole fraction) (in acetone, 303.15 K) was 0.00433, the solubility (mole fraction) (in acetone, 308.15 K) was 0.00487 and the solubility (mole fraction) (in acetone, 313.15 K) was 0.00557. For the same molecule, the solubility (mole fraction) (in acetonitrile, 273.15 K) was 0.0003, the solubility (mole fraction) (in acetonitrile, 278.15 K) was 0.000506 and the solubility (mole fraction) (in acetonitrile, 283.15 K) was 0.000705. It also gave a solubility (mole fraction) (in acetonitrile, 288.15 K) of 0.000935, a solubility (mole fraction) (in acetonitrile, 293.15 K) of 0.00119 and a solubility (mole fraction) (in acetonitrile, 298.15 K) of 0.00151. It also gave a solubility (mole fraction) (in acetonitrile, 303.15 K) of 0.00187, a solubility (mole fraction) (in acetonitrile, 308.15 K) of 0.00226 and a solubility (mole fraction) (in acetonitrile, 313.15 K) of 0.00273. The solubility (mole fraction) (in ethanol, 273.15 K) was 0.000168, the solubility (mole fraction) (in ethanol, 278.15 K) was 0.000282 and the solubility (mole fraction) (in ethanol, 283.15 K) was 0.000406. The solubility (mole fraction) (in ethanol, 288.15 K) was 0.00054, the solubility (mole fraction) (in ethanol, 293.15 K) was 0.00069 and the solubility (mole fraction) (in ethanol, 298.15 K) was 0.000847. It also gave a solubility (mole fraction) (in ethanol, 303.15 K) of 0.00102, a solubility (mole fraction) (in ethanol, 308.15 K) of 0.00122 and a solubility (mole fraction) (in ethanol, 313.15 K) of 0.00144. The solubility (mole fraction) (in ethyl acetate, 273.15 K) was 0.000115, the solubility (mole fraction) (in ethyl acetate, 278.15 K) was 0.000205 and the solubility (mole fraction) (in ethyl acetate, 283.15 K) was 0.00031. The solubility (mole fraction) (in ethyl acetate, 288.15 K) was 0.000428, the solubility (mole fraction) (in ethyl acetate, 293.15 K) was 0.000556 and the solubility (mole fraction) (in ethyl acetate, 298.15 K) was 0.000704. It also gave a solubility (mole fraction) (in ethyl acetate, 303.15 K) of 0.000861, a solubility (mole fraction) (in ethyl acetate, 308.15 K) of 0.00102 and a solubility (mole fraction) (in ethyl acetate, 313.15 K) of 0.00119. The solubility (mole fraction) (in isopropanol, 273.15 K) was 8.4e-05, the solubility (mole fraction) (in isopropanol, 278.15 K) was 0.000155 and the solubility (mole fraction) (in isopropanol, 283.15 K) was 0.000233. The solubility (mole fraction) (in isopropanol, 288.15 K) was 0.000324, the solubility (mole fraction) (in isopropanol, 293.15 K) was 0.000421 and the solubility (mole fraction) (in isopropanol, 298.15 K) was 0.000543. It also gave a solubility (mole fraction) (in isopropanol, 303.15 K) of 0.000683, a solubility (mole fraction) (in isopropanol, 308.15 K) of 0.000833 and a solubility (mole fraction) (in isopropanol, 313.15 K) of 0.000981. For the same molecule, the solubility (mole fraction) (in methanol, 273.15 K) was 0.000258, the solubility (mole fraction) (in methanol, 278.15 K) was 0.00041 and the solubility (mole fraction) (in methanol, 283.15 K) was 0.000573. It also gave a solubility (mole fraction) (in methanol, 288.15 K) of 0.000754, a solubility (mole fraction) (in methanol, 293.15 K) of 0.000955 and a solubility (mole fraction) (in methanol, 298.15 K) of 0.00117. The solubility (mole fraction) (in methanol, 303.15 K) was 0.00141, the solubility (mole fraction) (in methanol, 308.15 K) was 0.00166 and the solubility (mole fraction) (in methanol, 313.15 K) was 0.00193. For the same molecule, the solubility (mole fraction) (in n-butanol, 273.15 K) was 0.000437, the solubility (mole fraction) (in n-butanol, 278.15 K) was 0.000656 and the solubility (mole fraction) (in n-butanol, 283.15 K) was 0.000907. It also gave a solubility (mole fraction) (in n-butanol, 288.15 K) of 0.00119, a solubility (mole fraction) (in n-butanol, 293.15 K) of 0.0015 and a solubility (mole fraction) (in n-butanol, 298.15 K) of 0.00184. The solubility (mole fraction) (in n-butanol, 303.15 K) was 0.00222, the solubility (mole fraction) (in n-butanol, 308.15 K) was 0.00263 and the solubility (mole fraction) (in n-butanol, 313.15 K) was 0.00307. For the same molecule, the solubility (mole fraction) (in n-propanol, 273.15 K) was 0.000206, the solubility (mole fraction) (in n-propanol, 278.15 K) was 0.000334 and the solubility (mole fraction) (in n-propanol, 283.15 K) was 0.000487. For the same molecule, the solubility (mole fraction) (in n-propanol, 288.15 K) was 0.000634, the solubility (mole fraction) (in n-propanol, 293.15 K) was 0.000813 and the solubility (mole fraction) (in n-propanol, 298.15 K) was 0.00098. The solubility (mole fraction) (in n-propanol, 303.15 K) was 0.00116, the solubility (mole fraction) (in n-propanol, 308.15 K) was 0.00136 and the solubility (mole fraction) (in n-propanol, 313.15 K) was 0.0016.
